What all share (assay): relative viability (nuclei count vs DMSO), 5 days (fraction); higher = more cells survive
Compound in assay [1]: Cc1ccc2nc(NCCN)c3ncc(C)n3c2c1 + CC(=O)c1c(C)c2cnc(Nc3ccc(N4CCNCC4)cn3)nc2n(C2CCCC2)c1=O [Palbociclib] (partner 0.5 µM)
In a few lines: (§1)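 Five library-drug doses in √10 steps were combined with a fixed anchor-drug dose, or a single drug was given alone, by pin tool to lung cancer cell lines in 1536-well plates the day after seeding. Nuclei were stained and counted after 5 days. Relative viability is the nuclei count in treated wells over that in vehicle wells, taken as the median of duplicate plates.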

Compound in assay [2]: Cc1ccc2nc(NCCN)c3ncc(C)n3c2c1 + CCNC(=O)c1noc(-c2cc(C(C)C)c(O)cc2O)c1-c1ccc(CN2CCOCC2)cc1 [Luminespib] (partner 0.01 µM)
In a few lines: as §1

Compound in assay [3]: Cc1ccc2nc(NCCN)c3ncc(C)n3c2c1 + Cc1nc(NC(=O)N2CCC[C@H]2C(N)=O)sc1-c1ccnc(C(C)(C)C(F)(F)F)c1 [Alpelisib] (partner 2 µM)
The procedure, abridged:
as §1

Compound in assay [4]: Cc1ccc2nc(NCCN)c3ncc(C)n3c2c1 + N=C(N)NC(=N)NCCc1ccccc1 [Phenformin] (partner 250 µM)
The procedure, abridged:
as §1

In the case of UMC-11, the relative viability in assay [1] (first compound 0.04 µM) is 0.34; in assay [1] (first compound 0.1265 µM) it was 0.322; in assay [1] (first compound 0.4 µM), 0.322; in assay [1] (first compound 1.265 µM), 0.317; in assay [1] (first compound 4 µM) it was 0.341; in assay [2] (first compound 0.04 µM) it was 1.02. Moreover, the relative viability in assay [2] (first compound 0.1265 µM) is 0.834; in assay [2] (first compound 0.4 µM), 1; in assay [2] (first compound 1.265 µM), 0.996; in assay [2] (first compound 4 µM), 0.894; in assay [3] (first compound 0.04 µM), 0.946; in assay [3] (first compound 0.1265 µM) it was 0.906. In addition, the relative viability in assay [3] (first compound 0.4 µM) is 1.03; in assay [3] (first compound 1.265 µM), 0.995; in assay [3] (first compound 4 µM), 0.817; in assay [4] (first compound 0.04 µM), 0.352; in assay [4] (first compound 0.1265 µM) it was 0.319; in assay [4] (first compound 0.4 µM) it was 0.333. Moreover, the relative viability was 0.335 in assay [4] (first compound 1.265 µM) and 0.349 in assay [4] (first compound 4 µM).

The values above are taken from the supplement of paper PMC10307832.
